In PubChem BioAssay (NCI):
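Interpolation was linear, between the two tested concentrations surrounding the appropriate level; five concentrations were tested over 48 hours in 96-well plates. Definition used: TGI = concentration required for complete inhibition of growth.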

Legend:
Assay in all cases: NCI anticancer screen, dose series, 48 h
[1] = test system: NCI-H23 lung
[2] = test system: UACC-257 melanoma
[3] = test system: SK-MEL-28 melanoma
[4] = test system: HT29 colon
[5] = test system: HOP-92 NSCLC
[6] = test system: SK-MEL-2 melanoma
[7] = test system: MALME-3M melanoma
[8] = test system: HCT-15 colon
[9] = test system: KM12 colon
[10] = test system: OVCAR-5 ovarian
[11] = test system: SNB-19 CNS
[12] = test system: SK-OV-3 ovarian
[13] = test system: HCC-2998 colon
[14] = test system: XF 498 CNS
[15] = test system: K-562 leukemia
[16] = test system: COLO 205 colon
[17] = test system: SF-295 CNS
[18] = test system: RXF 393 renal
[19] = test system: SF-268 CNS
[20] = test system: CAKI-1 renal

Row | SMILES | TGI [1] [µM] | TGI [2] [µM] | TGI [3] [µM] | TGI [4] [µM] | TGI [5] [µM] | TGI [6] [µM] | TGI [7] [µM] | TGI [8] [µM] | TGI [9] [µM] | TGI [10] [µM] | TGI [11] [µM] | TGI [12] [µM] | TGI [13] [µM] | TGI [14] [µM] | TGI [15] [µM] | TGI [16] [µM] | TGI [17] [µM] | TGI [18] [µM] | TGI [19] [µM] | TGI [20] [µM]
1 | CN(C)CCNC(=O)c1cc(Cl)cc2ccc(-c3ccccc3)nc12 | 14.4 | 10.8 | 16.1 | 10.7 | 9.35 | 17.1 | 8.26 | 9.49 | 22.2 | 13.7 | 18.8 | 12.8 | 13.8 | 5.04 | 8.17 | 4.28 | 15.4 | 14.3 | 19.2 | 8.56
2 | CCCCOc1ccc(OCCCCCCCCCC[N+](C)(C)C)cc1 | 11 | 17.8 | 18 | 2.46 | 3.65 | 5 | 16 | 30.5 | 2.97 | 17.2 | 23.3 | 10.8 | 6.28 | 4.57 | 15.4 | 2.68 | 19.9 | 3.34 | 13.9 | 16.6
3 | NCCCCNCCCNC(=O)c1nc(-c2nc(CCN)sc2Cl)sc1Cl | > 100 | > 100 | > 100 | > 100 | > 100 | – | > 100 | > 100 | > 100 | > 100 | > 100 | > 100 | > 100 | > 100 | > 100 | > 100 | > 100 | 37.1 | 25.4 | > 100
4 | Cc1cc(C)nc(NS(=O)(=O)c2ccc(Nc3c4ccccc4nc4c(C(=O)N5CCN(CCOS(C)(=O)=O)CC5)cccc34)cc2)n1 | > 100 | > 100 | > 100 | > 100 | > 100 | > 100 | > 100 | > 100 | > 100 | > 100 | > 100 | > 100 | > 100 | > 100 | > 100 | > 100 | > 100 | > 100 | > 100 | > 100
